In ChEMBL document CHEMBL5360532, “Current scenario of quinolone hybrids with potential antibacterial activity against ESKAPE pathogens” (Eur J Med Chem, 2023) one finds MIC and Ratio data, which are given here for 22 compounds.

In brackets after ≈: the same amount, converted by molar mass.

What all share (assay type): functional
For test [1], the system named is Staphylococcus aureus. As to the kind of experiment: Antibacterial activity against Staphylococcus aureus assessed as bacterial growth inhibition by broth microdilution assay.
The test system of test [2] is Escherichia coli. As to the kind of experiment: Antibacterial activity against Escherichia coli assessed as bacterial growth inhibition by broth microdilution assay.
The next test relates to Enterococcus faecalis. In words: Antibacterial activity against Enterococcus faecalis assessed as bacterial growth inhibition by broth microdilution assay.
Test [3] concerns Escherichia coli. As to the kind of experiment: Antibacterial activity against fluoroquinolone Escherichia coli assessed as bacterial growth inhibition by broth microdilution assay.
The subject of test [4] is Escherichia coli. In words: Potency index, ratio of ciprofloxacin MIC to test compound MIC for antimicrobial activity against Escherichia coli assessed as bacterial growth inhibition by agar cup diffusion assay.
Test [5] concerns Staphylococcus aureus. As to the kind of experiment: Antibacterial activity against Staphylococcus aureus ATCC 25923 assessed as bacterial growth inhibition measured after 18 hrs by agar dilution assay.
Test [6] relates to Escherichia coli. As to the kind of experiment: Antibacterial activity against Escherichia coli ATCC 25922 assessed as bacterial growth inhibition measured after 18 hrs by agar dilution assay.
Test [7] relates to Escherichia coli. As to the kind of experiment: Antibacterial activity against Escherichia coli assessed as bacterial growth inhibition by two fold microdilution assay.
For test [8], the system named is Klebsiella pneumoniae. In words: Antibacterial activity against Klebsiella pneumoniae assessed as bacterial growth inhibition by two fold microdilution assay.
In test [9] the test system is Staphylococcus aureus. As to the kind of experiment: Antibacterial activity against Staphylococcus aureus assessed as bacterial growth inhibition by two fold microdilution assay.
Test [10] deals with Escherichia coli. In words: Antibacterial activity against Escherichia coli ATCC 8739 assessed as bacterial growth inhibition by two fold microdilution assay.
Test [11] concerns Staphylococcus aureus. As to the kind of experiment: Antibacterial activity against Staphylococcus aureus ATCC 6538P assessed as bacterial growth inhibition by two fold microdilution assay.
For test [12], the system named is Escherichia coli. In words: Antibacterial activity against Escherichia coli ATCC 10536 assessed as bacterial growth inhibition measured after 24 to 48 hrs by agar dilution assay. The following applies: time 24-48 hrs.
In test [13] the test system is Pseudomonas aeruginosa. In words: Antibacterial activity against Pseudomonas aeruginosa ATCC 11632 assessed as bacterial growth inhibition measured after 24 to 48 hrs by agar dilution assay. Particulars: time 24-48 hrs.
The test system of test [14] is Pseudomonas aeruginosa. As to the kind of experiment: Antibacterial activity against Pseudomonas aeruginosa assessed as bacterial growth inhibition by broth microdilution assay.
For test [15], the system named is Staphylococcus aureus. In words: Antibacterial activity against methicillin resistant Staphylococcus aureus ATCC 33591 assessed as bacterial growth inhibition measured after 16 to 18 hrs by serial dilution method. Particulars: time 16-18 hrs.
Test [16] has as its system Escherichia coli. As to the kind of experiment: Antibacterial activity against Escherichia coli assessed as bacterial growth inhibition by agar cup diffusion assay.
In test [17] the test system is Pseudomonas aeruginosa. As to the kind of experiment: Antibacterial activity against Pseudomonas aeruginosa assessed as bacterial growth inhibition by agar cup diffusion assay.
Test [18] relates to Klebsiella pneumoniae. In words: Antibacterial activity against Klebsiella pneumoniae assessed as bacterial growth inhibition by agar cup diffusion assay.
Test [19] has as its system Staphylococcus aureus. In words: Antibacterial activity against Staphylococcus aureus assessed as bacterial growth inhibition by agar cup diffusion assay.
For test [20], the system named is Staphylococcus aureus. In words: Potency index, ratio of ciprofloxacin MIC to test compound MIC for antimicrobial activity against Staphylococcus aureus assessed as bacterial growth inhibition by agar cup diffusion assay.

On to `CCCCCCOc1ccc(C2C(Cl)C(=O)N2c2cc3[nH]cc(C(=O)O)c(=O)c3cc2F)cc1` (stereo unspecified), for which the MIC in the test on Staphylococcus aureus [1], with Escherichia coli [2], in the test on Enterococcus faecalis and in the test on Escherichia coli [3] was 0.02 mg/L (≈ 0.0411 µM) throughout.

As for `O=C(O)c1cn(C2CC2)c2cc(N3CCN(C(=O)CCSc4nnnn4-c4ccc(Br)cc4)CC3)c(F)cc2c1=O`, in the test with Escherichia coli [4], the Ratio was determined as 2.

Take `O=C(O)c1cn(C2CC2)c2cc(N3CCN(Cc4cn(-c5ccccc5)nn4)CC3)c(F)cc2c1=O`: the MIC with Staphylococcus aureus [5] and with Escherichia coli [6] was 0.12 mg/L (≈ 0.246 µM) throughout.

For the compound `Cc1nn(Cc2nn(CN3CCN(c4cc5c(cc4F)c(=O)c(C(=O)O)cn5C4CC4)CC3)c(=S)n2-c2ccccc2)c(=O)n1/N=C/c1ccccc1O`, the minimum inhibitory concentration (MIC) with Escherichia coli [7] was below 0.24 mg/L; with Klebsiella pneumoniae [8], below 0.24 mg/L; with Staphylococcus aureus [9] it was below 28 mg/L.

As for `Cc1ccc(-n2cc(CN3CCN(c4cc5c(cc4F)c(=O)c(C(=O)O)cn5C4CC4)CC3)nn2)cc1`, the MIC with Staphylococcus aureus [5] and with Escherichia coli [6] was 0.12 mg/L (≈ 0.239 µM) each time.

Take `Cc1nn(Cc2nn(CN3CCN(c4cc5c(cc4F)c(=O)c(C(=O)O)cn5C4CC4)CC3)c(=O)n2-c2ccccc2)c(=O)n1/N=C/c1ccccc1O`: the MIC is below 0.24 mg/L in the test with Escherichia coli [7], below 0.24 mg/L in the test on Klebsiella pneumoniae [8] and below 28 mg/L in the test with Staphylococcus aureus [9].

On to `O=C(O)c1cn(C2CC2)c2cc(N3CCN(C(=O)CCSc4nnnn4-c4ccccc4)CC3)c(F)cc2c1=O`, for which, in the test on Escherichia coli [4], the Ratio is 2.

For `CCn1cc(C(=O)O)c(=O)c2cc(F)c(N3CCN(Cn4nc(-c5ccccc5O)n(-c5ccc(OC)cc5)c4=S)CC3)cc21`, the MIC in the test on Klebsiella pneumoniae [8], in the test with Escherichia coli [10] and in the test on Staphylococcus aureus [11] was at most 0.125 mg/L in each case.

With `C[C@@H](N)C(=O)N1CCN(c2cc3c(cc2F)c(=O)c(C(=O)N2CCOCC2)cn3C2CC2)CC1`, in the test on Escherichia coli [2], the MIC worked out at 0.4 mg/L (≈ 0.848 µM).

Regarding `C[C@H]1COc2c(N3CCN(C)CC3)c(F)cc3c(=O)c(C(=O)O)cn1c23` [LEVOFLOXACIN ANHYDROUS], the MIC stood at 0.66 mg/L (≈ 1.83 µM) with Staphylococcus aureus [1], 0.47 mg/L (≈ 1.3 µM) in the test on Escherichia coli [2], 0.72 mg/L (≈ 1.99 µM) with Enterococcus faecalis and 0.47 mg/L (≈ 1.3 µM) with Escherichia coli [3].

Take `CC1(C)S[C@@H]2[C@H](NC(=O)[C@H](N)c3ccccc3)C(=O)N2[C@H]1C(=O)O` [AMPICILLIN]: the MIC in the test on Escherichia coli [12] and with Pseudomonas aeruginosa [13] was 0.5 mg/L (≈ 1.43 µM) throughout.

Take `CCn1cc(C(=O)O)c(=O)c2cc(F)c(N3CCN(Cn4nc(-c5cnccn5)oc4=S)CC3)cc21`: the MIC in the test with Staphylococcus aureus [1], in the test on Escherichia coli [2] and with Pseudomonas aeruginosa [14] was at most 0.125 mg/L throughout.

As for `CCn1cc(C(=O)O)c(=O)c2cc(F)c(N3CCN(Cn4nc(Cn5nc(C)n(/N=C/c6ccccc6O)c5=O)n(-c5ccccc5)c4=S)CC3)cc21`, the MIC was below 0.24 mg/L in the test with Escherichia coli [7], below 0.24 mg/L in the test with Klebsiella pneumoniae [8] and below 28 mg/L with Staphylococcus aureus [9].

Take `CCCCCOc1ccc(C2C(Cl)C(=O)N2c2cc3[nH]cc(C(=O)O)c(=O)c3cc2F)cc1` (stereo unspecified): the MIC in the test with Staphylococcus aureus [1], in the test on Escherichia coli [2], in the test with Enterococcus faecalis and with Escherichia coli [3] was 0.02 mg/L (≈ 0.0423 µM) throughout.

As for `CCn1cc(C(=O)O)c(=O)c2cc(F)c(N3CCN(Cn4nc(-c5ccccn5)n(-c5ccc(OC)cc5)c4=S)CC3)cc21`, the MIC in the test on Klebsiella pneumoniae [8], in the test on Escherichia coli [10] and in the test with Staphylococcus aureus [11] was at most 0.125 mg/L throughout.

Consider `Cc1ccc(Oc2ccnc(Nc3ccc4c(=O)c(C(=O)O)cn(C5CC5)c4c3)n2)cc1C`, for which the MIC in the test with Staphylococcus aureus [15] stood at 0.38 mg/L (≈ 0.859 µM).

`CCn1cc(C(=O)O)c(=O)c2cc(F)c(N3CCN(Cn4nc(Cn5nc(C)n(/N=C/c6ccccc6O)c5=O)n(-c5ccccc5)c4=O)CC3)cc21`: the MIC is below 0.24 mg/L with Escherichia coli [7], below 0.24 mg/L in the test on Klebsiella pneumoniae [8] and below 28 mg/L in the test on Staphylococcus aureus [9].

With `COc1cc(-n2nnnc2SCCC(=O)N2CCN(c3cc4c(cc3F)c(=O)c(C(=O)O)cn4C3CC3)CC2)cc(OC)c1OC`, in the test on Escherichia coli [4], the Ratio is 2.

Turning to `CCn1cc(C(=O)O)c(=O)c2cc(F)c(N3CCN(Cn4nc(-c5cccs5)n(-c5ccc(OC)cc5)c4=S)CC3)cc21`, the MIC with Klebsiella pneumoniae [8], in the test with Escherichia coli [10] and in the test on Staphylococcus aureus [11] was at most 0.125 mg/L each time.

For `Cc1ccc(-c2ccnc(Nc3ccc4c(=O)c(C(=O)O)cn(C5CC5)c4c3)n2)cc1`, the MIC in the test on Staphylococcus aureus [15] stood at 0.38 mg/L (≈ 0.921 µM).

On to `CCn1cc(C(=O)O)c(=O)c2cnc(N3CCNCC3)nc21` [PIPEMIDIC ACID], for which the MIC with Staphylococcus aureus [5] and with Escherichia coli [6] was 19.5 mg/L (≈ 64.3 µM) throughout.

Take `O=C(CN1CCN(c2cc3c(cc2F)c(=O)c(C(=O)O)cn3C2CC2)CC1)Nc1nnc(-c2ccc(Cl)cc2)s1`: the MIC in the test on Escherichia coli [16] was 1.12 mg/L (≈ 1.92 µM); with Pseudomonas aeruginosa [17], 9.11 mg/L (≈ 15.6 µM); with Klebsiella pneumoniae [18] it was 1.12 mg/L (≈ 1.92 µM); in the test on Staphylococcus aureus [19], 1.12 mg/L (≈ 1.92 µM). Further, the Ratio in the test on Staphylococcus aureus [20] and in the test on Escherichia coli [4] was 4.6 in each case.
